Experimental data from patent publication US11420944B2, “Voltage-dependent t-type calcium channel blocker” (Nippon Chemiphar Co., Ltd., priority 2016, dated 2022).
Where two headings read alike, the source gives them in different places.

Molecular target: T1, human Cav3.2 channels (Homo sapiens, UniProt O95180)
T1 construct: expressed in transfected cells; host or cells: HEK293 cells (ATCC No. CRL-1573), plasmid pcDNA3.1(+)
Assay: Intracellular calcium concentration measurement (Fluo-4 AM) in stable cells expressing human Cav3.2 channels, buffer A / buffer B
Assay type: cell-based
Excerpt: Construction of Stable Cells Expressing Human Cav3.2 Channels
(1) A sequence produced by incorporating HindIII site and kozak sequence (GCCACC) into the 5′-terminal side of human Cav3.2 channel ORF (Open Reading Frame) gene and incorporating Kpnl site into the 3′-terminal side was incorporated into pcDNA3.1(+) (Thermo-Fisher Scientific, Inc., #V790-20), and the plasmid was transfected into HEK293 cells (ATCC No. CRL-1573) according to the protocol of FuGENE (registered trademark) HD Transfection Reagent (PROMEGA #E2311).
(2) Method for Measuring Intracellular Calcium Concentration
In the present measurement system, buffer A and buffer B having different potassium ion concentrations were used in order to evaluate the state-dependent Cav3.2 inhibitory action of a test compound.
Stable cell line expressing human Cav3.2 channels, which had been produced in (1), was seeded in a 96-well plate using DMEM medium including 10% FBS, and the cells were cultured for 48 hours under the conditions of 37° C. and 5% CO2. Subsequently, the medium was removed, and various wells that had been washed with a base buffer were treated with 80 μL of a fluorescent dye solution containing a mixed liquid of 22 μg of calcium fluorescence indicator Fluo-4 AM (Dojindo Laboratories Co., Ltd., #F311), 20 μL of DMSO, […] of 10% Pluronic F-127 (Thermo-Fisher Scientific, Inc., #P6866), and 4 mL of a base buffer. The cells were left to stand for 45 minutes at room temperature in the dark, and then the cells were washed with buffer A or buffer B. Solutions having various test compound concentrations and respectively containing buffer A or buffer B were added to the respective wells, the respective solutions containing DMSO at the same final concentration as that of the test compound as negative control, or containing the test compound dissolved in 100% DMSO at a final concentration of 0.1%. The cells were left to stand for another 15 minutes at room temperature in the dark, and the cells were analyzed using the following method using a microplate reader, EnVision (PerkinElmer, Inc.). First, the background fluorescence for each well was measured, subsequently an ionophore was added to the well, and the fluorescence of the baseline was measured. Subsequently, buffer A or buffer B containing added KCl at a concentration of 83.8 mM or 91.8 mM was added to each well, and an increase in fluorescence caused by a calcium influx generated by that stimulus was measured for 10 seconds. The percentage inhibition was calculated from the maximum fluorescence increment from the baseline, and the logarithmic value of the test compound concentration and the inhibitory activity were plotted to calculate the IC50 value. The analysis was carried out by measuring the fluorescence at 510 nm emitted when the cells were irradiated with exciting light at 485 nm.
Base buffer: 140 mM NaCl, 5 mM KCl, 1 mM MgCl2, 0.5 mM CaCl2, 10 mM Glucose, and 10 mM HEPES, pH 7.3
Buffer A: Equilibrium potential of potassium: −92 mV

[1] = Tables 2 to 6, buffer A, equilibrium potential of potassium −92 mV, read-out: Inhibitory action of buffer A (inactivated state)
[2] = Table 1, buffer A, equilibrium potential of potassium −92 mV, read-out: Inhibitory action of buffer A (inactivated state)
[3] = Table 1, buffer B, equilibrium potential of potassium −110 mV, read-out: Inhibitory action of buffer B (resting state or closed state)

T1 sequence (O95180 whole entry): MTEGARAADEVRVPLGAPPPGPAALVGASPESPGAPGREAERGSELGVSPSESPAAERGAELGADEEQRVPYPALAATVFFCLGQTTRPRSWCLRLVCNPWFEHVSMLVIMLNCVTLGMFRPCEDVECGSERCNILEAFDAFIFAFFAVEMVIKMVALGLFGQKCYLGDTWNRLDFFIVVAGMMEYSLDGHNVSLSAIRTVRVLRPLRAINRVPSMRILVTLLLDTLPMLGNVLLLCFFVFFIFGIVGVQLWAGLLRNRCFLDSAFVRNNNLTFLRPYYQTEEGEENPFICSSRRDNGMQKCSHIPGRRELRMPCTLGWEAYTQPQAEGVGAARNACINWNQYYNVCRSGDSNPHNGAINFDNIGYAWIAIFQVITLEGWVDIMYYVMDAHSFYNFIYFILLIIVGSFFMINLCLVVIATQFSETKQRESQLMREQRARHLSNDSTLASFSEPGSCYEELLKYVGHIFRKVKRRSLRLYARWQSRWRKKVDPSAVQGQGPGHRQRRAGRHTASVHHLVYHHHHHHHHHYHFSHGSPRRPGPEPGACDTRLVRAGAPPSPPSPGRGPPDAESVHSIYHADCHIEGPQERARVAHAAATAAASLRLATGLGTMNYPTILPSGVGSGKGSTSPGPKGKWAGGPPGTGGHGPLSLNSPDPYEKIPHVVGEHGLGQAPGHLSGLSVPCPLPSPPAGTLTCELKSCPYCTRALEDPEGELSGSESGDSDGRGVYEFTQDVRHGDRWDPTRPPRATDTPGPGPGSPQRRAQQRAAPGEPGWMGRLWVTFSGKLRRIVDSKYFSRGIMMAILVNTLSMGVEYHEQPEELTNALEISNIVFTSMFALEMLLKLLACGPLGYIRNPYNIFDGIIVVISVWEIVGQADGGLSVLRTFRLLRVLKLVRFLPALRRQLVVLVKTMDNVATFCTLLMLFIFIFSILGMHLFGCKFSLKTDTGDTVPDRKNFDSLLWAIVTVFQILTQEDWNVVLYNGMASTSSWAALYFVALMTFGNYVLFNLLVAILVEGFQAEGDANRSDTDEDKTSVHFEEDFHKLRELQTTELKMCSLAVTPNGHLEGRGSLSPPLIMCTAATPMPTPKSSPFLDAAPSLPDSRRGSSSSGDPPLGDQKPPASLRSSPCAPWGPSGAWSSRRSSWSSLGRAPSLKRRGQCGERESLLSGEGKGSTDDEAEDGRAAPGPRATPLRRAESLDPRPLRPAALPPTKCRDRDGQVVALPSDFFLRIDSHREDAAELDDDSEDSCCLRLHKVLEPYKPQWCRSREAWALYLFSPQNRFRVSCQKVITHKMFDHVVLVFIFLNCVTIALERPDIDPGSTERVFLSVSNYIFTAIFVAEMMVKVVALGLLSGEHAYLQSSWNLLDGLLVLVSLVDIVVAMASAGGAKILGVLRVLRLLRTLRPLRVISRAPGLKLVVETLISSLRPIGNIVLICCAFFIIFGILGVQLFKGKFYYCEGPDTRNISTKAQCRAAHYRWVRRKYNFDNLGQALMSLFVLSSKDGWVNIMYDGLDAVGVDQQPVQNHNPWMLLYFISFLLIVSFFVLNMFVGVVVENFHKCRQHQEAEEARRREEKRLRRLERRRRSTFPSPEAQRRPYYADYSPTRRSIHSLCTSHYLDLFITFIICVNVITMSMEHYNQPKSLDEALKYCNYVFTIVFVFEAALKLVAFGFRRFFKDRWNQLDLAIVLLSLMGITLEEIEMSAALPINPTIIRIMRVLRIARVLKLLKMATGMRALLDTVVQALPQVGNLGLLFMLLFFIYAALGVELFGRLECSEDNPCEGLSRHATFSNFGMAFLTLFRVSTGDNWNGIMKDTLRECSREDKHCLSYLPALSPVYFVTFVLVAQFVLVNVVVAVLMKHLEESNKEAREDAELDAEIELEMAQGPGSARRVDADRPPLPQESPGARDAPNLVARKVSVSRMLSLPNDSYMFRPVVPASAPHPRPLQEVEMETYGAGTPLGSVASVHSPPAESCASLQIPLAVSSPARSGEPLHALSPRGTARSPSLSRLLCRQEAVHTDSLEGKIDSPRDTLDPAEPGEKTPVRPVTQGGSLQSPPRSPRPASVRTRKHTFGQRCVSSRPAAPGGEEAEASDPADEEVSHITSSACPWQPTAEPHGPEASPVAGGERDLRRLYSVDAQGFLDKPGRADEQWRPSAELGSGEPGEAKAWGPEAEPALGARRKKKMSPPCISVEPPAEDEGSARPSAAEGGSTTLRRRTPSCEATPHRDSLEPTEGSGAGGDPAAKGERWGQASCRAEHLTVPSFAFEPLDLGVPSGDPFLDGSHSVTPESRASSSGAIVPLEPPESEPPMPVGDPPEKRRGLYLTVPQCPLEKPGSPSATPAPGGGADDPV

| IC50 [1] | IC50 [2] | IC50 [3] | SMILES |
| --- | --- | --- | --- |
| > 10000 nM | – | – | C[C@@H](NC(=O)C1CC1c1nc2cnccc2[nH]1)c1ccc(OCC(F)(F)F)s1 (mixture of isomers) [Example 28, Trans-2-(1H-imidazo[4,5-c]pyridin-2-yl)-N—((R)-1-(5-(2,2,2-trifluoroethoxy)thiophen-2-yl)ethyl)cyclopropane-1-carboxamide] |
| – | 100 to 1000 nM | > 10000 nM | Cc1cc([C@@H](C)NC(=O)C2CC2c2nc3ccccc3[nH]2)sc1OCC(F)(F)F (single isomer, unassigned) [Example 1A] |
| – | 1000 to 10000 nM | – | Cc1cc([C@@H](C)NC(=O)C2CC2c2nc3ccccc3[nH]2)sc1OCC(F)(F)F (single isomer, unassigned) [Example 1B] |
| – | 1000 to 10000 nM | > 10000 nM | C[C@H](NC(=O)C1CC1c1nc2ccccc2[nH]1)c1ccc(OCC(F)(F)F)s1 (single isomer, unassigned) [Example 2A] |
| – | 1000 to 10000 nM | > 10000 nM | C[C@H](NC(=O)C1CC1c1nc2ccccc2[nH]1)c1ccc(OCC(F)(F)F)s1 (single isomer, unassigned) [Example 2B] |
| – | 1000 to 10000 nM | 1000 to 10000 nM | C[C@@H](NC(=O)C1CC1c1nc2ccccc2[nH]1)c1ccc(OCC(F)(F)F)s1 (single isomer, unassigned) [Example 3B] |
| – | 1000 to 10000 nM | > 10000 nM | C[C@@H](NC(=O)C1CC1c1nc2ccccc2n1C)c1ccc(OCC(F)(F)F)s1 (single isomer, unassigned) [Example 4B] |
| – | 1000 to 10000 nM | 1000 to 10000 nM | C[C@@H](NC(=O)C1CC1c1nc2ccccc2[nH]1)c1ccc(C(F)(F)F)s1 (single isomer, unassigned) [Example 5B] |
| – | 100 to 1000 nM | 1000 to 10000 nM | C[C@@H](NC(=O)C1CC1c1nc2ccccc2[nH]1)c1ccc(Br)s1 (single isomer, unassigned) [Example 6A] |
| – | 1000 to 10000 nM | > 10000 nM | C[C@@H](NC(=O)C1CC1c1nc2ccccc2[nH]1)c1ccc(Br)s1 (single isomer, unassigned) [Example 6B] |
| – | 1000 to 10000 nM | > 10000 nM | C[C@H](NC(=O)C1CC1c1nc2ccccc2[nH]1)c1cnc(OCC(F)(F)F)s1 (single isomer, unassigned) [Example 7A] |
| – | 1000 to 10000 nM | > 10000 nM | C[C@H](NC(=O)C1CC1c1nc2ccccc2[nH]1)c1cnc(OCC(F)(F)F)s1 (single isomer, unassigned) [Example 7B] |
| – | > 10000 nM | – | C[C@@H](NC(=O)C1CC1c1nc2ccccc2[nH]1)c1cnc(OCC(F)(F)F)s1 (single isomer, unassigned) [Example 8B] |
| – | 1000 to 10000 nM | > 10000 nM | C[C@@H](NC(=O)C1CC1c1nc2ccccc2[nH]1)c1ncc(Br)s1 (single isomer, unassigned) [Example 11A] |
| – | > 10000 nM | – | C[C@@H](NC(=O)C1CC1c1nc2ccccc2[nH]1)c1ncc(Br)s1 (single isomer, unassigned) [Example 11B] |
| > 10000 nM | – | – | C[C@@H](NC(=O)C1CC1c1cc(F)cc(F)c1)c1ccc(OCC(F)(F)F)s1 (single isomer, unassigned) [Example 19A] |
| > 10000 nM | – | – | C[C@@H](NC(=O)C1CC1c1cc(F)cc(F)c1)c1ccc(OCC(F)(F)F)s1 (single isomer, unassigned) [Example 19B] |
| 100 to 1000 nM | – | – | C[C@@H](NC(=O)C1CC1c1ccc2cnn(C)c2c1)c1ccc(OCC(F)(F)F)s1 (single isomer, unassigned) [Example 22B] |
| 1000 to 10000 nM | – | – | C[C@@H](NC(=O)C1CC1c1ccccn1)c1ccc(OCC(F)(F)F)s1 (single isomer, unassigned) [Example 23A] |
| > 10000 nM | – | – | C[C@@H](NC(=O)C1CC1c1ccccn1)c1ccc(OCC(F)(F)F)s1 (single isomer, unassigned) [Example 23B] |
| > 10000 nM | – | – | C[C@@H](NC(=O)C1CC1c1nc2ccccc2[nH]1)c1ccc(C(=O)O)s1 (single isomer, unassigned) [Example 27] |
| > 10000 nM | – | – | C[C@@H](NC(=O)C1CC1c1cn(C)c2ccccc12)c1ccc(OCC(F)(F)F)s1 (single isomer, unassigned) [Example 29A] |
| > 10000 nM | – | – | C[C@@H](NC(=O)C1CC1c1cn(C)c2ccccc12)c1ccc(OCC(F)(F)F)s1 (single isomer, unassigned) [Example 29B] |

| IC50 [1] | IC50 [2] | IC50 [3] | SMILES |
| --- | --- | --- | --- |
| > 10000 nM | – | – | C[C@@H](NC(=O)C1CC1c1nc2ccccc2[nH]1)c1ccc(C(N)=O)s1 (single isomer, unassigned) [Example 30] |
| 100 to 1000 nM | – | – | C[C@@H](NC(=O)C1CC1c1nc(-c2ccccc2)c[nH]1)c1ccc(OCC(F)(F)F)s1 (single isomer, unassigned) [Example 31B] |
| 100 to 1000 nM | – | – | C[C@@H](NC(=O)C1CC1c1ccc2ccccc2n1)c1ccc(OCC(F)(F)F)s1 (single isomer, unassigned) [Example 34B] |
| 1000 to 10000 nM | – | – | C[C@@H](NC(=O)C1CC1c1nc2cccnc2[nH]1)c1ccc(OCC(F)(F)F)s1 (single isomer, unassigned) [Example 35] |
| > 10000 nM | – | – | C[C@@H](NC(=O)C1CC1c1nccn1Cc1ccccc1)c1ccc(OCC(F)(F)F)s1 (single isomer, unassigned) [Example 38A] |
| > 10000 nM | – | – | C[C@@H](NC(=O)C1CC1c1nccn1Cc1ccccc1)c1ccc(OCC(F)(F)F)s1 (single isomer, unassigned) [Example 38B] |
| > 10000 nM | – | – | C[C@@H](NC(=O)C1CC1c1nc2ccccc2o1)c1ccc(OCC(F)(F)F)s1 (single isomer, unassigned) [Example 40A] |
| > 10000 nM | – | – | C[C@@H](NC(=O)C1CC1c1nc2ccccc2o1)c1ccc(OCC(F)(F)F)s1 (single isomer, unassigned) [Example 40B] |
| ≤ 100 nM | – | – | CC(C)[C@@H](NC(=O)C1CC1c1nc2ccccc2[nH]1)c1ccc(OCC(F)(F)F)s1 (single isomer, unassigned) [Example 44] |
| 100 to 1000 nM | – | – | C[C@@H](NC(=O)C1CC1c1ccc2ccccc2n1)c1ccc(Br)s1 (single isomer, unassigned) [Example 45] |
| ≤ 100 nM | – | – | C[C@@H](NC(=O)C1CC1c1cn(C)c2ccccc12)c1cnc(OCC(F)(F)F)s1 (single isomer, unassigned) [Example 48] |
| ≤ 100 nM | – | – | C[C@@H](NC(=O)C1CC1c1nc2cc(Cl)ccc2[nH]1)c1ccc(OCC(F)(F)F)s1 (single isomer, unassigned) [Example 53A] |
| 100 to 1000 nM | – | – | C[C@@H](NC(=O)C1CC1c1nc2cc(Cl)ccc2[nH]1)c1ccc(OCC(F)(F)F)s1 (single isomer, unassigned) [Example 53B] |
| 100 to 1000 nM | – | – | CCn1c(C2CC2C(=O)N[C@H](C)c2cnc(OCC(F)(F)F)s2)nc2ccccc21 (single isomer, unassigned) [Example 57A] |
| 1000 to 10000 nM | – | – | CCn1c(C2CC2C(=O)N[C@H](C)c2cnc(OCC(F)(F)F)s2)nc2ccccc21 (single isomer, unassigned) [Example 57B] |
| 1000 to 10000 nM | – | – | C[C@@H](NC(=O)C1CC1c1nc2cc(Cl)ccc2[nH]1)c1cnc(OCC(F)(F)F)s1 (single isomer, unassigned) [Example 64B] |
| 100 to 1000 nM | – | – | COc1ccc2[nH]c(C3CC3C(=O)N[C@H](C)c3ccc(OCC(F)(F)F)s3)nc2c1 (single isomer, unassigned) [Example 71A] |
| 100 to 1000 nM | – | – | COc1ccc2[nH]c(C3CC3C(=O)N[C@H](C)c3ccc(OCC(F)(F)F)s3)nc2c1 (single isomer, unassigned) [Example 71B] |
| 100 to 1000 nM | – | – | C[C@@H](NC(=O)C1CC1c1nc2cc(Cl)ccc2[nH]1)c1nc(C2CC2)no1 (single isomer, unassigned) [Example 77A] |
| 1000 to 10000 nM | – | – | C[C@@H](NC(=O)C1CC1c1nc2cc(Cl)ccc2[nH]1)c1nc(C2CC2)no1 (single isomer, unassigned) [Example 77B] |
| 1000 to 10000 nM | – | – | C[C@@H](NC(=O)C1CC1c1nc2cc(Cl)cnc2[nH]1)c1ccc(OCC(F)(F)F)s1 (single isomer, unassigned) [Example 85A] |
| > 10000 nM | – | – | C[C@@H](NC(=O)C1CC1c1nc2cc(Cl)cnc2[nH]1)c1ccc(OCC(F)(F)F)s1 (single isomer, unassigned) [Example 85B] |
